Assay results from patent US9856247B2, “4-methyl-dihydropyrimidines for the treatment and prophylaxis of Hepatitis B virus infection” (Hoffmann-La Roche Inc., priority 2012, dated 2018).

What was measured:
in vitro = conditions: human
Procedure: The transfected cells were selected with G418 (also known as Genticin, purchased from Invitrogen). […] These cells were maintained in Dulbecco's modified Eagle's medium (DMEM)-F12 medium (Invitrogen) supplemented with 10% fetal bovine serum, 100 U/ml penicillin, and 100 μg/ml streptomycin, 0.5 mg/ml of G418 and 1 μg/ml tetracycline.
To determine if the anti-HBV effect of compound is due to cytotoxicity, HepDE 19 cells (5×10^3 cells/well) were seeded into 96-well plates and compounds were treated as described above. […] Four hours after incubation at 37° C., the absorbance at wavelengths of 450 nm and 630 nm (OD450 and OD630) was recorded by a plate reader.

HBV DNA = assay: Anti-HBV activity in HepDE19 cells (HBV DNA dot-blot); format: cell-based, Hepatitis B virus (HBV); conditions: Hepatitis B virus, 120 h; HepDE19 cells, five days after compound treatment, concentration that inhibited HBV DNA by 50%; read-out: HepDe19 EC50
Excerpt: Cells and culture conditions: HepDE19 (Haitao Guo et al, Journal of Virology, 81, November 2007, 12472-12484; Richeng Mao et al, Journal of Virology, 85, January 2011, 1048-1057) cells were derived from HepG2 (ATCC, American Type Culture Collection) cells through transfection with pTet-off plasmid (Clontech) that expresses the Tet-responsive transcriptional activator and pTREHBVDE plasmid in which HBV pgRNA expression is controlled by a CMV early promoter with a tetracycline-responsive element. The transfected cells were selected with G418 (also known as Genticin, purchased from Invitrogen). […] These cells were maintained in Dulbecco's modified Eagle's medium (DMEM)-F12 medium (Invitrogen) supplemented with 10% fetal bovine serum, 100 U/ml penicillin, and 100 μg/ml streptomycin, 0.5 mg/ml of G418 and 1 μg/ml tetracycline.
Anti-HBV activity and cytotoxicity: HepDE19 cells were seeded into 96-well plates (3×10^4 cells/well) with tetracycline-free medium and incubated overnight at 37° C. The test or control compounds were serially half-log diluted with medium and added into the plates (the final concentration of DMSO kept at 0.5% in each well). Five days after compound treatment, cells were washed with PBS and lysed with 50 mM Tris-1 mM EDTA-0.2% CA-630 (pH 8.0) at 37° C. for 20 min. After centrifugation to remove nuclei and other debris, the supernatant was transferred into a new plate and incubated with 2M NaOH/20×SSC (3M NaCl, 0.3M Sodium citrate, pH7.0) at rt for 30 min. Then the samples were transferred to nylon membrane and neutralized with 1M Tris (pH7.4)/2M NaCl. The presence of HBV DNA was detected by dot-blot with DIG-labeled HBV specific DNA probe and quantified by dot density. The compound concentrations that inhibited HBV DNA by 50% (EC50) were determined (See Table 1).

| Structure (SMILES) | CC50 at 5 days (in vitro) [µM] | EC50 (HBV DNA) [nM] |
| --- | --- | --- |
| C[C@@]1(c2ccc(F)c(F)c2)N=C(c2nccs2)NC(CN2CC(F)(F)C[C@H]2C(=O)O)=C1C#N [Example 23, (S)-1-[(S)-5-Cyano-6-(3,4-difluoro-phenyl)-6-methyl-2-thiazol-2-yl-3,6-dihydro-pyrimidin-4-ylmethyl]-4,4-difluoro-pyrrolidine-2-carboxylic acid] | > 100 | 7000 |
| CNC(=O)[C@@H]1CC(F)(F)CN1CC1=C(C(=O)OC)C(C)(c2ccc(F)cc2)N=C(c2nccs2)N1 (stereo partly drawn) [Example 50, 6-((S)-4,4-difluoro-2-methylcarbamoyl-pyrrolidin-1-ylmethyl)-4-(4-fluoro-phenyl)-4-methyl-2-thiazol-2-yl-1,4-dihydro-pyrimidine-5-carboxylic acid methyl ester] | ≥ 100 | 606 |
| COC(=O)C1=C(CN2CC(F)(F)CC2CCCO)NC(c2nccs2)=N[C@@]1(C)c1ccc(F)cc1 (stereo partly drawn) [Example 56, (S)-6-[4,4-difluoro-2-(3-hydroxy-propyl)-pyrrolidin-1-ylmethyl]-4-(4-fluoro-phenyl)-4-methyl-2-thiazol-2-yl-1,4-dihydro-pyrimidine-5-carboxylic acid methyl ester] | 90 | 660 |
| COC(=O)C1=C(CN2CC(F)(F)CCC2C(=O)O)NC(c2nccs2)=N[C@@]1(C)c1ccc(F)cc1 (stereo partly drawn) [Example 25, (S)-6-(2-carboxy-5,5-difluoro-piperidin-1-ylmethyl)-4-(4-fluoro-phenyl)-4-methyl-2-thiazol-2-yl-1,4-dihydro-pyrimidine-5-carboxylic acid methyl ester] | ≥ 100 | 1090 |
| COC(=O)C1=C(CN2CC(F)(F)C[C@@]2(C)C(=O)O)NC(c2nccs2)=N[C@@]1(C)c1ccc(F)cc1 [Example 20, (S)-6-((S)-2-Carboxy-4,4-difluoro-2-methyl-pyrrolidin-1-ylmethyl)-4-(4-fluoro-phenyl)-4-methyl-2-thiazol-2-yl-1,4-dihydro-pyrimidine-5-carboxylic acid methyl ester] | > 100 | 2800 |
| COC(=O)C1=C(CN2CC(F)(F)C[C@H]2C(=O)O)NC(c2nccs2)=N[C@@]1(C)c1ccc(F)c(F)c1 [Example 14, (S)-6-((S)-2-Carboxy-4,4-difluoro-pyrrolidin-1-ylmethyl)-4-(3,4-difluoro-phenyl)-4-methyl-2-thiazol-2-yl-1,4-dihydro-pyrimidine-5-carboxylic acid methyl ester] | > 100 | 200 |
| COC(=O)C1=C(CN2CCOC[C@H]2C(=O)OC)NC(c2nccs2)=NC1(C)c1ccc(F)c(F)c1 (stereo in doubt) [Example 15, 4-[(S)-6-(3,4-Difluoro-phenyl)-5-methoxycarbonyl-6-methyl-2-thiazol-2-yl-3,6-dihydro-pyrimidin-4-ylmethyl]-morpholine-3-carboxylic acid methyl ester] | > 100 | 560 |
| COC(=O)C1=C(CN2CCOC[C@H]2CO)NC(c2nccs2)=NC1(C)c1ccc(F)cc1 (stereo partly drawn) [Example 53, 4-(4-fluoro-phenyl)-6-((R)-3-hydroxymethyl-morpholin-4-ylmethyl)-4-methyl-2-thiazol-2-yl-1,4-dihydro-pyrimidine-5-carboxylic acid methyl ester] | ≥ 100 | 1750 |
| COC(=O)C1=C(CN2CC(F)(F)C[C@H]2C(=O)N(C)C)NC(c2nccs2)=N[C@@]1(C)c1ccc(F)cc1 [Example 49, (S)-6-((S)-2-dimethylcarbamoyl-4,4-difluoro-pyrrolidin-1-ylmethyl)-4-(4-fluoro-phenyl)-4-methyl-2-thiazol-2-yl-1,4-dihydro-pyrimidine-5-carboxylic acid methyl ester] | ≥ 100 | 290 |
| COC(=O)C1=C(CN2CC(F)(F)C[C@H]2C(C)(C)O)NC(c2nccs2)=N[C@@]1(C)c1ccc(F)cc1 [Example 54, (S)-6-[(S)-4,4-difluoro-2-(1-hydroxy-1-methyl-ethyl)-pyrrolidin-1-ylmethyl]-4-(4-fluoro-phenyl)-4-methyl-2-thiazol-2-yl-1,4-dihydro-pyrimidine-5-carboxylic acid methyl ester] | 50.4 | 700 |
| COC(=O)C1=C(CN2CC(F)(F)C[C@H]2C(=O)O)NC(c2ccc(F)cn2)=N[C@@]1(C)c1ccc(F)cc1 [Example 18, (S)-6-((S)-2-Carboxy-4,4-difluoro-pyrrolidin-1-ylmethyl)-4-(4-fluoro-phenyl)-2-(5-fluoro-pyridin-2-yl)-4-methyl-1,4-dihydro-pyrimidine-5-carboxylic acid methyl ester] | 25 | 570 |
| COC(=O)C1=C(CN2CC(F)(F)C[C@@]2(C)C(=O)O)NC(c2nccs2)=N[C@]1(C)c1ccc(F)cc1 [Example 36, (R)-6-((S)-2-carboxy-4,4-difluoro-2-methyl-pyrrolidin-1-ylmethyl)-4-(4-fluoro-phenyl)-4-methyl-2-thiazol-2-yl-1,4-dihydro-pyrimidine-5-carboxylic acid methyl ester] | ≥ 100 | 7490 |
| COC(=O)C1=C(CN2CC(F)(F)C[C@H]2C(=O)O)NC(c2cc(C)on2)=NC1(C)c1ccc(F)cc1 (stereo partly drawn) [Example 40, 6-((S)-2-carboxy-4,4-difluoro-pyrrolidin-1-ylmethyl)-4-(4-fluoro-phenyl)-4-methyl-2-(5-methyl-isoxazol-3-yl)-1,4-dihydro-pyrimidine-5-carboxylic acid methyl ester] | ≥ 100 | 5390 |
| COC(=O)C1=C(CN2CC(F)(F)C[C@H]2C(=O)OCCN(C)C)NC(c2nccs2)=N[C@@]1(C)c1ccc(F)cc1 [Example 46, (S)-6-[(S)-2-(2-dimethylamino-ethoxycarbonyl)-4,4-difluoro-pyrrolidin-1-ylmethyl]-4-(4-fluoro-phenyl)-4-methyl-2-thiazol-2-yl-1,4-dihydro-pyrimidine-5-carboxylic acid methyl ester] | ≥ 100 | 2130 |
| COC(=O)C1=C(COC(C)(C)C(=O)OC)NC(c2nccs2)=NC1(C)c1ccc(F)cc1 (centres unmarked) [Example 1, 4-(4-Fluoro-phenyl)-6-(1-methoxycarbonyl-1-methyl-ethoxymethyl)-4-methyl-2-thiazol-2-yl-1,4-dihydro-pyrimidine-5-carboxylic acid methyl ester] | > 100 | 26300 |
| COC(=O)C1=C(CN(CC(=O)O)CC(F)(F)F)NC(c2nccs2)=N[C@@]1(C)c1ccc(F)cc1 [Example 44, (S)-6-{[carboxymethyl-(2,2,2-trifluoro-ethyl)-amino]-methyl}-4-(4-fluoro-phenyl)-4-methyl-2-thiazol-2-yl-1,4-dihydro-pyrimidine-5-carboxylic acid methyl ester] | ≥ 100 | 21500 |
| COC(=O)C1=C(CN2CC(F)(F)C[C@H]2c2nc(C)no2)NC(c2nccs2)=N[C@@]1(C)c1ccc(F)cc1 [Example 59, (S)-6-[(S)-4,4-difluoro-2-(3-methyl-[1,2,4]oxadiazol-5-yl)-pyrrolidin-1-ylmethyl]-4-(4-fluoro-phenyl)-4-methyl-2-thiazol-2-yl-1,4-dihydro-pyrimidine-5-carboxylic acid methyl ester] | 65.3 | 1240 |
| COC(=O)C1=C(CN2CC(F)(F)C[C@H]2C(=O)O)NC(c2nccn2C)=N[C@@]1(C)c1ccc(F)cc1 [Example 27, (S)-6-((S)-2-carboxy-4,4-difluoro-pyrrolidin-1-ylmethyl)-4-(4-fluoro-phenyl)-4-methyl-2-(1-methyl-1H-imidazol-2-yl)-1,4-dihydro-pyrimidine-5-carboxylic acid methyl ester] | 55.8 | 2720 |
| COC(=O)C1=C(CN2CC(F)(F)C[C@H]2C(=O)O)NC(c2ncc(Cl)s2)=N[C@@]1(C)c1ccc(F)cc1 [Example 33, (S)-6-((S)-2-carboxy-4,4-difluoro-pyrrolidin-1-ylmethyl)-2-(5-chloro-thiazol-2-yl)-4-(4-fluoro-phenyl)-4-methyl-1,4-dihydro-pyrimidine-5-carboxylic acid methyl ester] | 80 | 2070 |
